# Test results from PMC11984586, “A novel spider toxin as a selective antagonist of the Kv1 subfamily of voltage-gated potassium channels through gating modulation” (The Journal of Biological Chemistry, 2025).
# Bridge positions count the residues as written; N and C are the ends. Peptide text beside a SMILES is read from it.
# How the values were obtained:
# [1] = tested on: Cav3.2-3.3; assay: Selectivity patch clamp, non-Kv1 channels; type: cell-based; conditions: 10 μM MrVIII; n = 3–5
# Procedure: (§1) CHO-K1 cells were selected for expressing Kv channels due to their lack of endogenous Kv channels, while HEK293 or ND7/23 cells were used for Nav and Cav channel expression. CHO-K1 cells were cultured in a Dulbecco's modified Eagle's medium/Ham's F-12 nutrient mixture (DMEM-F12) medium, and HEK293T and ND7/23 cells in DMEM medium, all supplemented with 10% fetal bovine serum and 1% penicillin-streptomycin (all from Gibco, Thermo Fisher Scientific, Inc) under standard conditions (37 °C, 5% CO2, and saturated humidity). These cell lines were purchased from Stem Cell Bank, Chinese Academy of Sciences. Channel plasmids were cotransfected with pEGFP-N1 (encoding GFP) into the respective cells using lipofectamine 2000, following the manufacturer's instructions (Invitrogen, Thermo Fisher Scientific, Inc.). Nav1.9-GFP plasmid was transfected into ND7/23 using the X-tremeGENE HP DNA Transfection Reagent (Roche). After 4 to 6 h transfection, cells were seeded onto poly-lysine–coated coverslips, and 24 to 36 h later, transfected cells were ready for patch-clamp analysis.
# (§2) Patch clamp experiments were conducted using an electrophysiology platform comprising a MultiClamp 700B amplifier and an Axon Digidata 1550 AD/DA convertor (Axon Instruments). Data acquisition was performed with pClamp 10.5 software (Axon Instruments). All experiments were performed at room temperature.
# [2] = tested on: Nav1.2; assay: Selectivity patch clamp, non-Kv1 channels; type: cell-based; conditions: 10 μM MrVIII; n = 3–5
# Procedure: as §1, §2
# [3] = tested on: Kv1.1/Y256A; assay: Whole-cell patch clamp, Tyr-to-Ala mutant homologous to Kv1.3 Y339; type: cell-based, human; conditions: 10 μM MrVIII, +30 mV, 500 ms, holding −80 mV, mean ± SD, n = 4–6
# Source text: (§3) Building on the identification of key amino acid residues in Kv1.3 channel that interact with MrVIII through alanine-scanning mutagenesis, we extended our analysis to explore these residues across other Kv1 subfamily channels. […] However, MrVIII retained substantial inhibitory potency on Kv1.2/Y266A mutant, albeit without fully blocking the channel current. […] The profound reduction in MrVIII's effect across homologous mutants supports the idea that it binds to a conserved region.
# (§4) The cDNA of hKv1.1, hKv1.2, hKv1.3, rKv1.4, hKv1.5, mKv1.6, and hKv1.7 were subcloned into mammalian expression vectors pcDNA3.1 or pCMV-blank vectors, as well as other plasmids described previously ([35]). Channel mutants were generated by site-directed mutations. Briefly, the parental channel plasmid was amplified using a pair of oppositely directed primers harboring the designed mutation site, with KOD Fx (TOYOBO Co, Ltd). The resulting PCR mix was treated with FastDigest DpnI (Thermo Fisher Scientific) to remove the methylated template. Ten microliters of the digested product was then used to transform 100 μl E. coli DH5α competent cells. […]
# (§5) CHO-K1 cells were selected for expressing Kv channels due to their lack of endogenous Kv channels, while HEK293 or ND7/23 cells were used for Nav and Cav channel expression. […] After 4 to 6 h transfection, cells were seeded onto poly-lysine–coated coverslips, and 24 to 36 h later, transfected cells were ready for patch-clamp analysis. […]
# (§6) For Kv current recordings, the bath solution contained (in mM) the following: 140 NaCl, 5 KCl, 1 MgCl2, 2 CaCl2, 10 glucose, and 10 Hepes (pH 7.3, adjusted with NaOH), and the pipette solution contained (in mM) the following: 140 KCl, 2.5 MgCl2, 11 EGTA, and 10 Hepes (pH 7.3, adjusted with KOH). […] Whole cell conductance (G) at each depolarizing voltage (V) was determined using the equation: G = I/(V−Vrev), where I is the current amplitude, and Vrev is the reversal potential. […] The steady-state fast inactivation of Kv1.3 was measured using a two-pulses protocol. […]
# [4] = tested on: Kv1.5/Y368A; assay: as above; type: cell-based, human; conditions: 10 μM MrVIII, +30 mV, 500 ms, holding −80 mV, mean ± SD, n = 4–6
# Source text: as §3, §4, §5, §6
# [5] = tested on: Kv1.7/Y253A; assay: as above; type: cell-based, human; conditions: 10 μM MrVIII, +30 mV, 500 ms, holding −80 mV, mean ± SD, n = 4–6
# Source text: as §3, §4, §5, §6
# [6] = target: T1, hKv1.7 (Homo sapiens, UniProt Q96RP8); assay: Whole-cell patch clamp, Kv1.7 ionic current in CHO-K1 cells; type: cell-based; conditions: mean ± SD
# T1 construct: expressed in transfected cells; host or cells: CHO-K1
# Procedure: as §4, §5
# (§7) For Kv current recordings, the bath solution contained (in mM) the following: 140 NaCl, 5 KCl, 1 MgCl2, 2 CaCl2, 10 glucose, and 10 Hepes (pH 7.3, adjusted with NaOH), and the pipette solution contained (in mM) the following: 140 KCl, 2.5 MgCl2, 11 EGTA, and 10 Hepes (pH 7.3, adjusted with KOH). […] The steady-state fast inactivation of Kv1.3 was measured using a two-pulses protocol. […]
# [7] = target: T2, Kv1.7/A256T (Homo sapiens, UniProt Q96RP8, A256T); assay: Whole-cell patch clamp, Kv1.7 point mutant; type: cell-based
# T2 construct: expressed in transfected cells; host or cells: CHO-K1
# Source text: This observation prompted further exploration of the potential function of the homologous residue in the Kv1.7 channel, where the corresponding site is occupied by an alanine.
# The cDNA of hKv1.1, hKv1.2, hKv1.3, rKv1.4, hKv1.5, mKv1.6, and hKv1.7 were subcloned into mammalian expression vectors pcDNA3.1 or pCMV-blank vectors, as well as other plasmids described previously ([35]). Channel mutants were generated by site-directed mutations. Briefly, the parental channel plasmid was amplified using a pair of oppositely directed primers harboring the designed mutation site, with KOD Fx (TOYOBO Co, Ltd). […]
# as §5, §7
# T1 sequence (Q96RP8 whole entry): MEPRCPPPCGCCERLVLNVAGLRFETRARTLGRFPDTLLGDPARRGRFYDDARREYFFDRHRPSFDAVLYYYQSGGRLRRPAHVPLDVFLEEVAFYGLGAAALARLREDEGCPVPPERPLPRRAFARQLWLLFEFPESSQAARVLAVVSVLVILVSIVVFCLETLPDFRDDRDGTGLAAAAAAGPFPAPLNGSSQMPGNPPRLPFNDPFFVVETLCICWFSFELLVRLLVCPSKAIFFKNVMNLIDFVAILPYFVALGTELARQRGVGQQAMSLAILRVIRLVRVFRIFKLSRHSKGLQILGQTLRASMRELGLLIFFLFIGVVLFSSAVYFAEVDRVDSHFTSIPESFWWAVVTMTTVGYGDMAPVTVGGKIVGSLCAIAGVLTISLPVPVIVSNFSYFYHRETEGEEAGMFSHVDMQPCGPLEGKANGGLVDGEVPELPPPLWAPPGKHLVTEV
# T2 sequence (Q96RP8 whole entry A256T): as the sequence (Q96RP8 whole entry) above, with A256T counted along it
structure (smiles),measurement,setting,value
"CC[C@H](C)[C@@H]1NC(=O)[C@H](Cc2ccc(O)cc2)NC(=O)[C@H](CCC(N)=O)NC(=O)[C@@H]2CCCN2C(=O)[C@@H]2CSSC[C@H](NC(=O)[C@H](C)NC(=O)[C@H](CO)NC(=O)[C@H](CCC(=O)O)NC(=O)[C@H](CCC(=O)O)NC(=O)[C@@H](N)[C@@H](C)O)C(=O)NCC(=O)NCC(=O)N[C@@H](Cc3ccccc3)C(=O)N[C@@H](CC(N)=O)C(=O)N[C@@H](C)C(=O)N[C@@H](CCCNC(=N)N)C(=O)N[C@H]3CSSC[C@H](NC1=O)C(=O)N[C@@H](CCCCN)C(=O)NCC(=O)N[C@@H](Cc1c[nH]c4ccccc14)C(=O)N[C@@H](CCCNC(=N)N)C(=O)N[C@@H]([C@@H](C)O)C(=O)N[C@@H](CCCCN)C(=O)N[C@@H](CCCNC(=N)N)C(=O)N[C@H](C(=O)N[C@@H](CC(C)C)C(=O)N[C@@H](CC(N)=O)C(=O)N1CCC[C@H]1C(=O)O)CSSC[C@H](NC(=O)[C@H](CCCCN)NC(=O)[C@H](Cc1c[nH]cn1)NC(=O)[C@H](CC(C)C)NC(=O)[C@@H]1CCCN1C3=O)C(=O)N2 [MrVIII] (H-TEESACGGFNARCPLHKCCPQYICKGWRTKRCLNP-OH; disulfide 6-19, 13-24, 18-32; N-terminus and C-terminus assumed)",inhibition of Cav3.2-3.3 currents,[1],did not remarkably inhibit
same,inhibition of Nav1.2 current,[2],did not remarkably inhibit
same,inhibition of Kv1.1/Y256A current,[3],−9.5 ± 4.4%
same,inhibition of Kv1.5/Y368A current,[4],19.1 ± 6.2%
same,inhibition of Kv1.7/Y253A current,[5],−9.4 ± 13.6%
same,"inhi%(495 ms), Kv1.7 current","[6]; 10 μM (saturating), current at 495 ms, +30 mV",33.3 ± 3.0%
same,IC50,"[6]; current measured at 50 ms of a 500 ms depolarization to +30 mV, n = 4–7",0.199 ± 0.0503 µM
same,IC50,"[7]; +30 mV, mean ± SD, n = 6, SD, read-out: IC50, Kv1.7/A256T current (full inhibition)",0.138 ± 0.0503 µM
same,potency on Kv1.7/A256T weaker than on the Kv1.3 channel,[7]; ratio of IC50 values,approximately 28 fold
